Tests used:
Assay in all cases: cells
[1] = tested on: D-392MG; assay type: functional, cell-based, Homo sapiens; details: Homo sapiens, D-392MG
[2] = tested on: EC-GI-10; assay type: functional, cell-based, Homo sapiens; details: Homo sapiens, EC-GI-10
Description: SANGER: Inhibition of human EC-GI-10 cell growth in a cell viability assay.

[3] = tested on: EKVX; assay type: functional, cell-based, Homo sapiens; details: Homo sapiens, EKVX;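 further: growth inhibition of human EKVX cells, read out with a cell viability assay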
Description: SANGER: Inhibition of human EKVX cell growth in a cell viability assay.

[4] = tested on: ES1; assay type: functional, cell-based, Homo sapiens; details: Homo sapiens, ES1;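 further: growth inhibition of ES1 cells, read out with a cell viability assay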
Description: SANGER: Inhibition of human ES1 cell growth in a cell viability assay.

[5] = tested on: GCIY; assay type: functional, cell-based, Homo sapiens; details: Homo sapiens, GCIY;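 further: growth inhibition of the human GCIY cell line, read out by a cell viability assay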
Description: SANGER: Inhibition of human GCIY cell growth in a cell viability assay.

[6] = tested on: HCC1187; assay type: functional, cell-based, Homo sapiens; details: Homo sapiens, HCC1187;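 further: growth inhibition of HCC1187 cells, read out with a cell viability assay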
Description: SANGER: Inhibition of human HCC1187 cell growth in a cell viability assay.

[7] = tested on: HuTu80; assay type: functional, cell-based, Homo sapiens, HUTU-80; details: Homo sapiens, HuTu80;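 further: growth inhibition of HuTu80 human cells, determined with a cell viability readout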
Description: SANGER: Inhibition of human HUTU-80 cell growth in a cell viability assay.

[8] = tested on: KM12; assay type: functional, cell-based, Homo sapiens; details: Homo sapiens, KM12;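 further: KM12 cell growth inhibition, read out with a cell viability assay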
Description: SANGER: Inhibition of human KM12 cell growth in a cell viability assay.

[9] = tested on: L-428; assay type: functional, cell-based; details: Homo sapiens
Description: SANGER: Inhibition of human L-428 cell growth in a cell viability assay.

[10] = tested on: LAN-6; assay type: functional, cell-based, Homo sapiens; details: Homo sapiens, LAN-6;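 further: growth inhibition of LAN-6 cells, determined with a cell viability assay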
Description: SANGER: Inhibition of human LAN-6 cell growth in a cell viability assay.

[11] = tested on: LB1047-RCC; assay type: functional, cell-based, Homo sapiens; details: Homo sapiens, LB1047-RCC;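 further: inhibition of cell growth, determined with a cell viability assay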
Description: SANGER: Inhibition of human LB1047-RCC cell growth in a cell viability assay.

[12] = tested on: MEG-01; assay type: functional, cell-based; details: Homo sapiens;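 further: growth inhibition of MEG-01 cells, read out by a cell viability assay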
Description: SANGER: Inhibition of human MEG-01 cell growth in a cell viability assay.

[13] = tested on: MOLT-16; assay type: functional, cell-based; details: Homo sapiens;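 further: growth inhibition of human MOLT-16 cells, read out with a cell viability assay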
Description: SANGER: Inhibition of human MOLT-16 cell growth in a cell viability assay.

[14] = tested on: NCI-H1770; assay type: functional, cell-based; details: Homo sapiens;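 further: growth inhibition of NCI-H1770 cells determined with a viability readout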
Description: SANGER: Inhibition of human NCI-H1770 cell growth in a cell viability assay.

[15] = tested on: NCI-H1838; assay type: functional, cell-based, Homo sapiens; details: Homo sapiens, NCI-H1838;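 further: growth inhibition of NCI-H1838 cells, determined with a cell viability readout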
Description: SANGER: Inhibition of human NCI-H1838 cell growth in a cell viability assay.

[16] = tested on: NCI-H226; assay type: functional, cell-based, Homo sapiens; details: Homo sapiens, NCI-H226;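 further: cell viability read-out used to gauge growth inhibition of the cells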
Description: SANGER: Inhibition of human NCI-H226 cell growth in a cell viability assay.

[17] = tested on: NCI-H526; assay type: functional, cell-based; details: Homo sapiens;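 further: growth inhibition of the human NCI-H526 cell line, measured by a cell viability assay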
Description: SANGER: Inhibition of human NCI-H526 cell growth in a cell viability assay.

[18] = tested on: NCI-H82; assay type: functional, cell-based; details: Homo sapiens;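 further: growth inhibition of NCI-H82 cells, measured with a cell viability readout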
Description: SANGER: Inhibition of human NCI-H82 cell growth in a cell viability assay.

[19] = tested on: SK-N-FI; assay type: functional, cell-based, Homo sapiens; details: Homo sapiens, SK-N-FI;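 further: cell viability assay measuring growth inhibition of human SK-N-FI cells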
Description: SANGER: Inhibition of human SK-N-FI cell growth in a cell viability assay.

[20] = tested on: SNB-75; assay type: functional, cell-based, Homo sapiens; details: Homo sapiens, SNB-75;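 further: cell viability assay measuring growth inhibition of human SNB-75 cells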
Description: SANGER: Inhibition of human SNB75 cell growth in a cell viability assay.

[21] = tested on: A388; assay type: functional, cell-based, Homo sapiens; details: Homo sapiens, A388;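 further: growth inhibition of human A388 cells, read out with a cell viability assay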
Description: SANGER: Inhibition of human A388 cell growth in a cell viability assay.

[22] = tested on: C8166; assay type: functional, cell-based; details: Homo sapiens;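 further: growth inhibition of human C8166 cells measured by a cell viability assay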
Description: SANGER: Inhibition of human C8166 cell growth in a cell viability assay.

[23] = tested on: U-87 MG; assay type: functional, cell-based, U-87MG ATCC; details: Homo sapiens;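 further: growth inhibition of the cells measured with a viability assay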
Description: SANGER: Inhibition of human U-87-MG cell growth in a cell viability assay.

Measured: IC50

C=C1C(=O)O[C@@H]2C3O[C@]3(C)CC/C=C(\C)CC[C@@H]12 (stereo not given in full)
> 5 µM: all assays above

CC1=C2C[C@H]3[C@@H](CC=C4C[C@@H](O)CC[C@@]43C)[C@@H]2CC[C@]12O[C@@H]1C[C@H](C)CN[C@H]1[C@H]2C [CYCLOPAMINE]
> 16 µM: all assays above

CS(=O)(=O)CCNCc1ccc(-c2ccc3ncnc(Nc4ccc(OCc5cccc(F)c5)c(Cl)c4)c3c2)o1 [LAPATINIB]
0.723 µM: [21]
0.449 µM: [3]
> 2 µM: all other assays above

CCc1nc(N)nc(N)c1-c1ccc(Cl)cc1 [PYRIMETHAMINE]
12.1 µM: [7]
2.32 µM: [8]
11.8 µM: [12]
0.123 µM: [4]
7.92 µM: [17]
15.1 µM: [13]
9.11 µM: [18]
> 20 µM: all other assays above

O=C(/C=C/c1ccccc1)NC(NC(=S)Nc1cccc2cccnc12)C(Cl)(Cl)Cl (stereo not given) [SALUBRINAL]
14 µM: [13]
11.7 µM: [7]
> 16 µM: all other assays above

— ChEMBL document CHEMBL1201861, “Genomics of Drug Sensitity in Cancer screening data, Wellcome Trust Sanger Institute”
